Each structure is given as a SMILES string.

The nature of one data set: in vitro. The conditions noted are these: human, hela cells, % viability.
Consider `COCCC(=O)N[C@H]1CC[C@]2(C)CCC([C@H](C)C(=O)N3CCC(C)CC3)[C@H](O)[C@H]2[C@@H]1C` (stereo partly drawn) [CBK289451], for which the viability (commonly a read-out of living cells in per cent, often relative to untreated cells) at 28.5 h, 10 µM amounted to 103%.
Regarding `CCNC(=O)N[C@H]1CC[C@]2(C)CCC([C@H](C)C(=O)N3CCCCC3)[C@H](O)[C@H]2[C@@H]1C` (stereo partly drawn) [CBK289455], the viability at 28.5 h, 10 µM was 84.7%.
As to `COCCNC(=O)[C@@H](C)C1CC[C@@]2(C)CC[C@H](NS(C)(=O)=O)[C@@H](C)[C@@H]2[C@H]1O` (stereo partly drawn) [CBK289457], the viability at 28.5 h, 10 µM amounted to 93.5%.
Take `COC(=O)CO[C@@H]1CO[C@H]2[C@@H]1OC[C@@H]2NC(=S)Nc1ccccc1` [CBK289459]: the viability at 28.5 h, 10 µM was 88.3%.
For the compound `CC(=O)c1ccc(NC(=O)N[C@H]2CO[C@H]3[C@@H]2OC[C@H]3OCC(N)=O)cc1` [CBK289460], the viability at 28.5 h, 10 µM came out at 117%.
As to `CO[C@@H]1CO[C@H]2[C@@H]1OC[C@@H]2NC(=O)Nc1cccc(C(F)(F)F)c1` [CBK289461], the viability at 28.5 h, 10 µM was 112%.
On the same count and under the same terms, with `CO[C@@H]1CO[C@H]2[C@@H]1OC[C@@H]2NC(=O)Nc1ccc(C(C)=O)cc1` [CBK289462] the figure was 106%; with `O=C(Nc1ccccc1)N[C@H]1CO[C@H]2[C@@H]1OC[C@H]2OC(=O)Nc1ccccc1` [CBK289465], 89.1%.
Turning to `C=CCNC(=O)N[C@H]1CO[C@H]2[C@@H]1OC[C@H]2OC(=O)Nc1ccccc1` [CBK289466], the viability at 28.5 h, 10 µM was determined as 115%.
`O=C(NC1CCCCC1)O[C@@H]1CO[C@H]2[C@@H]1OC[C@@H]2NS(=O)(=O)Cc1ccccc1` [CBK289467]: the viability at 28.5 h, 10 µM stood at 87.8%.
For the compound `CS(=O)(=O)N[C@H]1CO[C@H]2[C@@H]1OC[C@H]2OC(=O)Nc1cccc2ccccc12` [CBK289469], the viability at 28.5 h, 10 µM is 89%.
Still for that read-out and setting: with `CCNC(=O)O[C@@H]1CO[C@H]2[C@@H]1OC[C@@H]2NC(=O)Nc1ccc(C(C)=O)cc1` [CBK289473] the figure was 93.5%.
As for `CCNC(=O)O[C@@H]1CO[C@H]2[C@@H]1OC[C@@H]2NS(=O)(=O)c1ccccc1C#N` [CBK289474], the viability at 28.5 h, 10 µM was 87.6%.
Same read-out and setting: with `CC(=O)c1ccc(NC(=O)O[C@@H]2CO[C@H]3[C@@H]2OC[C@@H]3NC(=O)C2CCC2)cc1` [CBK289475] the figure was 89.3%; with `NC(=O)CO[C@@H]1CO[C@H]2[C@@H]1OC[C@@H]2NCc1ccccc1` [CBK289479], 112%; with `Cc1ccc(S(=O)(=O)N[C@H]2CO[C@H]3[C@@H]2OC[C@@H]3n2nnnc2Oc2ccccc2)cc1` [CBK289485], 82.4%.
For `O=C(N[C@H]1CO[C@H]2[C@@H]1OC[C@@H]2n1nnnc1Oc1ccc(-n2ccnc2)cc1)c1ccco1` [CBK289486], the viability at 28.5 h, 10 µM is 91.9%.
In the case of `O=C(Nc1ccccc1)N[C@H]1CO[C@H]2[C@@H]1OC[C@H]2OCc1ccccc1` [CBK289488], the viability at 28.5 h, 10 µM was determined as 109%.
With `COCc1cn([C@H]2CO[C@H]3[C@@H]2OC[C@H]3OC)nn1` [CBK289490], the viability at 28.5 h, 10 µM was found to be 89.9%.
Turning to `COC(=O)c1cn([C@H]2CO[C@H]3[C@@H]2OC[C@H]3O)nn1` [CBK289491], the viability at 28.5 h, 10 µM was 87.5%.
On to `CN(C)Cc1cn([C@H]2CO[C@H]3[C@@H]2OC[C@@H]3NC(=O)NC2CCCCC2)nn1` [CBK289493], for which the viability at 28.5 h, 10 µM was 88.9%.
Take `COCc1cn([C@H]2CO[C@H]3[C@@H]2OC[C@@H]3NC(=O)c2ccc(OC)cc2)nn1` [CBK289494]: the viability at 28.5 h, 10 µM was found to be 115%.
Regarding `COC(=O)c1cn([C@H]2CO[C@H]3[C@@H]2OC[C@@H]3NC(=O)C2CCCCC2)nn1` [CBK289496], the viability at 28.5 h, 10 µM stood at 98.4%.
For the compound `COC(=O)c1cn([C@H]2CO[C@H]3[C@@H]2OC[C@@H]3NC(=O)NC2CCCCC2)nn1` [CBK289499], the viability at 28.5 h, 10 µM came to 82.4%.
For the compound `COC(=O)c1cn([C@H]2CO[C@H]3[C@@H]2OC[C@@H]3NC(=O)Nc2cccc(C(F)(F)F)c2)nn1` [CBK289501], the viability at 28.5 h, 10 µM was determined as 78.9%.
In the case of `N[C@H]1CO[C@H]2[C@@H]1OC[C@@H]2n1cc(-c2ccccc2)nn1` [CBK289502], the viability at 28.5 h, 10 µM came out at 81.6%.
For the compound `Cc1ccc(C(=O)N[C@H]2CO[C@H]3[C@@H]2OC[C@@H]3n2cc(-c3ccccc3)nn2)cc1` [CBK289504], the viability at 28.5 h, 10 µM was determined as 81.4%.
On the same count and under the same terms, in the case of `O=S(=O)(N[C@H]1CO[C@H]2[C@@H]1OC[C@@H]2n1cc(-c2ccccn2)nn1)c1cccs1` [CBK289508] it was 88.7%; in that of `O=C(NC1CCCCC1)N[C@H]1CO[C@H]2[C@@H]1OC[C@@H]2n1cc(CC2CCCCC2)nn1` [CBK289510], 75.2%; in that of `c1c(CC2CCCCC2)nnn1[C@H]1CO[C@H]2[C@@H]1OC[C@@H]2NCC1CC1` [CBK289511], 99.1%.
`O=C(Nc1ccccc1)O[C@@H]1CO[C@H]2[C@@H]1OC[C@@H]2Nc1nccc(-c2cccs2)n1` [CBK289513]: the viability at 28.5 h, 10 µM was found to be 97.8%.
As to `O=C(NC1CCCCC1)O[C@@H]1CO[C@H]2[C@@H]1OC[C@@H]2Nc1nccc(-c2cccs2)n1` [CBK289514], the viability at 28.5 h, 10 µM was 87.4%.
Same read-out and setting: in the case of `CN(C)C(=O)CO[C@@H]1CO[C@H]2[C@@H]1OC[C@@H]2Nc1nccc(-c2cccs2)n1` [CBK289515] it was 109%; in that of `CS(=O)(=O)N[C@H]1CO[C@H]2[C@@H]1OC[C@@H]2Nc1nccc(-c2cccs2)n1` [CBK289519], 92%.
In the case of `CC(C)CNC(=S)N[C@H]1CO[C@H]2[C@@H]1OC[C@@H]2Nc1nccc(C(C)(C)C)n1` [CBK289523], the viability at 28.5 h, 10 µM was found to be 90.9%.
Consider `CC(C)(C)c1ccnc(N[C@H]2CO[C@H]3[C@@H]2OC[C@@H]3NCc2ccccn2)n1` [CBK289524], for which the viability at 28.5 h, 10 µM came out at 86.6%.
As for `CCNC(=O)N[C@H]1CO[C@H]2[C@@H]1OC[C@@H]2Nc1nccc(-c2ccc(OC)cc2)n1` [CBK289528], the viability at 28.5 h, 10 µM amounted to 89.3%.
As for `COc1ccccc1-c1ccnc(N[C@H]2CO[C@H]3[C@@H]2OC[C@@H]3NC(=O)C2CCCCC2)n1` [CBK289529], the viability at 28.5 h, 10 µM worked out at 94.8%.
For the compound `CC(C)(C)C(=O)N[C@H]1CO[C@H]2[C@@H]1OC[C@@H]2Nc1nccc(C2CCCC2)n1` [CBK289530], the viability at 28.5 h, 10 µM stood at 115%.
In the case of `O=C(NC1CCCCC1)N[C@H]1CO[C@H]2[C@@H]1OC[C@@H]2Nc1nccc(C2CCCC2)n1` [CBK289531], the viability at 28.5 h, 10 µM came to 82.7%.
For `CN(C)C(=O)CO[C@@H]1CO[C@H]2[C@@H]1OC[C@@H]2Nc1nccc(-c2cccc(F)c2)n1` [CBK289533], the viability at 28.5 h, 10 µM was found to be 87.9%.
On the same count and under the same terms, with `CC(C)CCN[C@H]1CO[C@H]2[C@@H]1OC[C@@H]2n1nnnc1-c1ccccc1` [CBK289537] the figure was 88.1%.
Consider `CC(C)NC(=O)N[C@H]1CCN2C(=O)N(c3ccc(F)c(Cl)c3)C(=O)[C@@H]2C1` [CBK289540], for which the viability at 28.5 h, 10 µM came out at 83.1%.
Turning to `O=C(N[C@H]1CCN2C(=O)N(c3cccc4nsnc34)C(=O)[C@@H]2C1)c1cccs1` [CBK289543], the viability at 28.5 h, 10 µM is 87%.
The same measure, in the same setting: with `O=C(N[C@H]1CCN2C(=O)N(c3cccc4nsnc34)C(=O)[C@@H]2C1)c1ccnc(Cl)c1` [CBK289545] the figure was 91.2%; with `CSCC(=O)N[C@H]1CCN2C(=O)N(c3cccc(C(C)=O)c3)C(=O)[C@@H]2C1` [CBK289546], 90.6%.
For `COCC(=O)N[C@H]1CCN2C(=O)c3cc(-c4ccccc4F)ccc3NC(=O)[C@@H]2C1` [CBK289553], the viability at 28.5 h, 10 µM was determined as 95.6%.
`CC(C)C[C@H]1NC(=O)[C@@H]2C[C@@H](NC(=O)CS(=O)(=O)c3ccccc3)CCN2C1=O` [CBK289554]: the viability at 28.5 h, 10 µM was determined as 89.1%.
As to `COc1cc(SC)ccc1C(=O)N[C@H]1CCN2C(=O)[C@@H](CC(=O)O)NC(=O)[C@@H]2C1` [CBK289555], the viability at 28.5 h, 10 µM was 108%.
For the compound `O=C(N[C@H]1CCN2C(=O)N(c3ccc(Br)cc3)C(=O)[C@@H]2C1)c1cccnc1` [CBK289557], the viability at 28.5 h, 10 µM came to 104%.
Take `COc1ccc(-c2ccc3c(c2)C(=O)N2CC[C@H](N)C[C@H]2C(=O)N3)c(OC)c1` [CBK289560]: the viability at 28.5 h, 10 µM worked out at 104%.
On to `COCC(=O)N[C@H]1CCN2C(=O)c3cc(-c4cccc(C)c4C)ccc3NC(=O)[C@@H]2C1` [CBK289562], for which the viability at 28.5 h, 10 µM was found to be 90.7%.
The same measure, in the same setting: with `O=C(N[C@H]1CCN2C(=O)c3cc(-c4ccsc4)ccc3NC(=O)[C@@H]2C1)c1cccs1` [CBK289563] the figure was 103%.
Still for that read-out and setting: in the case of `CNCC(=O)N[C@H]1CCN2C(=O)c3ccc(Cl)cc3NC(=O)[C@@H]2C1` [CBK289566] it was 83.6%; in that of `C=CCNC(=O)N[C@H]1CCN2C(=O)c3ccccc3NC(=O)[C@@H]2C1` [CBK289568], 102%; in that of `C=CCNC(=O)N[C@H]1CCN2C(=O)c3ccc(Cl)cc3NC(=O)[C@@H]2C1` [CBK289569], 95.9%.
For the compound `C[C@]1(CO)[C@H]2Cc3sc(-c4ccccc4)nc3[C@@H](CC(=O)O)[C@]2(C)CC[C@H]1O` [CBK289572], the viability at 28.5 h, 10 µM was found to be 84.5%.
As for `COC[C@@H]1OC[C@@]2(C)C3CC[C@@H](O)[C@@H](CC(=O)N4CCCCC4)[C@]3(C)CC[C@H]2O1` (stereo partly drawn) [CBK289573], the viability at 28.5 h, 10 µM turned out to be 88.3%.
For the compound `COC[C@@H]1OC[C@@]2(C)C3CC[C@@H](O)[C@@H](CC(=O)NCc4ccccc4)[C@]3(C)CC[C@H]2O1` (stereo partly drawn) [CBK289574], the viability at 28.5 h, 10 µM stood at 79.1%.
Consider `C[C@]1(CO)C2CC[C@H]3OC(=O)C[C@H]3[C@]2(C)CC[C@H]1OC(=O)Nc1ccccc1` (stereo partly drawn) [CBK289577], for which the viability at 28.5 h, 10 µM is 84.5%.
Take `CC(C)NC(=O)N1CCN2C(=O)N(c3ccccc3)C(=O)[C@@H]2C1` [CBK289579]: the viability at 28.5 h, 10 µM amounted to 99.4%.
The same measure, in the same setting: in the case of `O=C(CS(=O)(=O)c1ccccc1)N1CCN2C(=O)N(C3CCCCC3)C(=O)[C@H]2C1` [CBK289580] it was 89.6%; in that of `O=C1Nc2ccc(Br)cc2C(=O)N2CCNC[C@H]12` [CBK289583], 85.1%.

The data set is the same for the next values; noted with them: human, hela cells, % viability, bulk resorufin, single well.
Take `O=C(N[C@H]1CCN2C(=O)N(CCCl)C(=O)[C@@H]2C1)c1cccs1` [CBK289542]: the viability at 28.5 h, 10 µM came to 90.8%.
With `Cc1nnsc1C(=O)N[C@H]1CCN2C(=O)N(CCCl)C(=O)[C@@H]2C1` [CBK289550], the viability at 28.5 h, 10 µM came out at 95.6%.
Regarding `O=C(N[C@H]1CCN2C(=O)N(CCCl)C(=O)[C@@H]2C1)c1ccncc1` [CBK289551], the viability at 28.5 h, 10 µM amounted to 88.3%.

The values are drawn from PMC12040169 (PLOS Biology, 2025).
